In brackets after ≈: the same amount, converted by molar mass. Counter-ions that a name gives are not always drawn. Square brackets hold non-standard residues; d marks the D form. Peptide text beside a SMILES is read from it. NMeR = CN[C@@H](CCCNC(=N)N)C(=O)O; 3Amb = NCc1cccc(C(=O)O)c1; dAbu = CC[C@@H](N)C(=O)O
Columns and labels:
platelet aggregation [1] = conditions: 20 mg/kg infused into femoral vein of anesthetized dogs; cited from earlier work
[2] = tested on: human platelet rich plasma; assay: Aggregation of human platelet rich plasma; type: cell-based; conditions: read-out: inhibition of aggregation by the compound itself; for inhibition at 0.05 µM: 5×10^−8 M
Procedure: Human platelet rich plasma (“PRP”) was prepared by centrifugation of citrated whole blood at 970×g for 3.5 minutes at room temperature. PRP was carefully removed from red cells and placed in 50 mL conical tubes. Platelet aggregation was measured as an increase in light transmission in an aggregometer (Bio/Data model PAP-4, Horsham, Pa.) using ADP (20 μM) or collagen (4 μg/mL) as the agonist.
Antibodies produced according to Example 4 were assayed in aggregation for their ability to neutralize (at 60 nM) the GPIIb/IIIa antagonists compound B (5×10^−8 M), compound D (1×10^−7 M), and Merck compound MK383 (5×10^−8 M), as a means of screening which ones recognized the antagonists in a useful manner. The levels of antiplatelet compounds used provided at least 50 percent inhibition of aggregation by themselves. Results are illustrated in FIG. 3.
Collagen-induced platelet aggregation was measured in the presence of 50 nM compound B or 100 nM compound D over 3 minutes in the presence or absence of Mab 9F7 inclusion at 60 nM.

[3] = Removal from circulation / elimination half-life; type: in vivo; conditions: for route of removal from circulation: in vivo; for change of elimination half-life with decreased creatinine clearance: renal impairment
platelet aggregation [4] = assay: IC50 values of antiplatelet compounds (FIG. 1 legend); type: cell-based
[5] = Half-life of compound B in guinea pig; type: in vivo
[6] = Total and free plasma levels of compound B in dog; type: in vivo; conditions: three bolus infusions of Mab 9F7, FIG. 11
Procedure: In a second study, a dog was treated with a capsule of 10 mg of compound A, BID for 4 days (15 mg on day 3) prior to antibody testing. […] Four hours after the last oral dose of compound A, a dose of pentobarbitol and the monoclional antibody (P187-9F7) was infused by a i.v. bolus injection. Each bolus contained a 5-fold molar excess over drug plasma levels (about 50 mg of Mab 9F7). A control dog was given identical amounts of antibody without compound A oral dosing. Blood samples were collected for aggregation assays at 5, 15, 30 and 60 minutes after each bolus administration of antibody, plasma levels of Mab 9F7, and total and free plasma levels of compound B.
This method involves the extraction of compound B and an internal standard (compound F, shown hereinafter) from acidified dog plasma with a C18 solid phase extraction column. Analysis is by reverse phase high performance liquid chromatography with fluorescence detection. Calibration standards were prepared in human heparinized plasma. Quality control pools were prepared in dog plasma and quantified using the human calibration curve. A linear weighted (1/concentration squared) least squares regression analysis was used to quantify samples. This method was validated with a minimum quantifiable level of 1.00 ng/mL. […]
Removed the samples to be analyzed from the freezer and thawed. […] The filtrate was then analyzed by the method given below. […]

[7] = tested on: heparinized human whole blood; assay: Activated clotting time (ACT) in heparinized human whole blood, Hemochron-8000; type: cell-based; conditions: 1.4 Units/mL heparin; FIG. 1
Excerpt: This process can be used to calculate a standardized concentration curve for various known concentrations of anti-platelet compounds. The process can also be used to measure activated clotting times for use in calculating the ACT number for the processes of the invention.
A. Blood was drawn from a human volunteer into a syringe containing heparin. The heparin to whole blood ratio was 1:10 such that the final concentration of heparin in the syringe was 1.4 Units/mL.
B. The Hemochron™-8000 was set up to run ACT using the P-215 tubes from the same manufacturer (International Technidyne).
A. A 1 mL sample of the above heparinized blood was admixed and maintained (incubated) with 2.5-10 μl of antagonist compound or saline for 5 minutes at room temperature.
B. The Hemochron™ was started as 400 μl of the test sample was pipetted into the P-215 tube. The tube contents were gently mixed, placed into the Hemochron™ and turned one revolution until the light on the instrument came on.
C. Step B was repeated for the second channel of the instrument within 30 seconds to give an average activated clotting time. […]
The activated clotting time was first measured (in seconds) for control whole blood from each donor containing only 1.4 Units/mL of heparin. The clotting times were then measured as in Example 1 by varying concentrations of antiplatelet compounds B and D in addition to heparin for each donor. […]

platelet aggregation [8] = assay: In vivo platelet aggregation, dogs (ex vivo aggregation response); conditions: dog, capsule of 10 mg BID for 4 days (15 mg on day 3)
Procedure: Three beagle dogs were therefore infused with compound B while monitoring blood pressure, heart rate, PT (prothrombin time), and aPTT (activated partial thromboplastin time). […] In a second study, a dog was treated with a capsule of 10 mg of compound A, BID for 4 days (15 mg on day 3) prior to antibody testing. […] Four hours after the last oral dose of compound A, a dose of pentobarbitol and the monoclional antibody ([…]-9F7) was infused by a i.v. bolus injection. Each bolus contained a 5-fold molar excess over drug plasma levels (about 50 mg of Mab 9F7). A control dog was given identical amounts of antibody without compound A oral dosing.

route of removal from circulation [3]	change of elimination half-life with decreased creatinine clearance [3]	IC50 (platelet aggregation [4])	Compound	inhibition at 0.05 µM [2]	effect of compound concentration on activated clotting time [7]	further results
–	–	–	CC[C@H]1NC(=O)c2cccc(c2)CNC(=O)[C@H](CC(=O)O)NC(=O)CNC(=O)[C@H](CCCNC(=N)N)N(C)C1=O [DMP728, cyclic [D-2-aminobutyryl-N2-methyl-L-arginyl-glycyl-L-aspartyl-3-aminomethyl-benzoic acid] methanesulfonic acid salt] (cyclo([NMeR]GD[3Amb][dAbu]))	–	–	duration of inhibition of platelet aggregation (platelet aggregation [1]): up to 210 minutes; inhibition of platelet aggregation, measured ex vivo (platelet aggregation [1]): nearly complete inhibition
–	–	–	CCCCS(=O)(=O)N[C@@H](Cc1ccc(OCCCCC2CCNCC2)cc1)C(=O)O [MK383, N-(butylsulfonyl)-0-(4-(4-piperidinyl)butyl)-L-tyrosine, monohydrochloride, reference compound]	≥ 50%	–	–
almost exclusively by the kidney	appreciable increases	0.027 µg/mL (≈ 0.0817 µM)	C#C[C@H](CC(=O)O)NC(=O)CCC(=O)Nc1ccc(C(=N)N)cc1 [Compound B, 3S-[[4-[[4-(aminoiminomethyl)phenyl]amino]-1,4-dioxobutyl]amino]-4-pentynoic acid]	≥ 50%	directly affect the activated clotting time	half-life [5]: short; levels of total compound B (free plus antibody bound) [6]: increased throughout the three infusions
–	–	–	C#C[C@H](CC(=O)OCC)NC(=O)CCC(=O)Nc1ccc(C(=N)N)cc1.Cl [Compound A, ethyl 3S-[[4-[[4-(aminoiminomethyl)phenyl]-amino]-1,4-dioxobutyl]amino]-4-pentynoate monohydrochloride]	–	–	inhibition of platelet function (platelet aggregation [8]): 54%
almost exclusively by the kidney	appreciable increases	0.043 µg/mL (≈ 0.129 µM)	N=C(N)c1ccc(N2CC[C@H](NC(=O)NCCC(=O)O)C2=O)cc1 [Compound D, 3-[[[[1-[4-(aminoiminomethyl)phenyl]-2-oxo-pyrrolidin-3S-yl]amino]carbonyl]amino]propanoic acid]	–	directly affect the activated clotting time	inhibition at 0.1 µM ([2]; 1×10^−7 M): ≥ 50%

From patent publication US20020177172A1, “RESTORATION OF PLATELET AGGREGATION BY ANTIBODY ADMINISTRATION AFTER GPIIB/IIIA ANTAGONIST TREATMENT” (priority 1996, published 2002)
